The source of these data is patent US7625902B2, “Imidazolidinone derivatives” (Hoffmann-La Roche Inc., priority 2007, dated 2009).

The target in experiment [1] is T1, human LXR alpha ligand binding domain (LXRα-LBD) (Homo sapiens, UniProt Q13133).
T1 construct: human LXR alpha (aa 164 to 447); unspecified tag ('tagged versions'); made in house; host or cells: E. coli BL21 (pLysS)
T1 sequence (Q13133 164-447): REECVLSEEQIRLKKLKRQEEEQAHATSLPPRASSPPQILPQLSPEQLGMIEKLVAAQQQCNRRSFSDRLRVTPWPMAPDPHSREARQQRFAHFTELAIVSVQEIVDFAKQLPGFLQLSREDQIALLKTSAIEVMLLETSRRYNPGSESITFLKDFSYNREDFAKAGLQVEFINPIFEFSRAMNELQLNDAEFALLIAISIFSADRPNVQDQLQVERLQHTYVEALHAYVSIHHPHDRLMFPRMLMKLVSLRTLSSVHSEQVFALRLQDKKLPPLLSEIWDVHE
Nature of the experiment: Radioligand binding assay (SPA), LXR alpha. Particulars: LXRα-LBD on SPA beads, read-out: LXRalpha Binding IC50. Here is the method:
(§1) The following tests were carried out in order to determine the activity of the compounds of the present invention. Background information on the performed assays can be found in: Nichols J S et al. “Development of a scintillation proximity assay for peroxisome proliferator-activated receptor gamma ligand binding domain”, Anal Biochem. 1998, 257: 112-119.
(§2) Mammalian expression vectors were constructed to express full-length human LXR alpha and LXR beta. Bacterial expression vectors were constructed to produce tagged versions of the ligand binding domains (LBD) of human LXR alpha (aa 164 to 447) and human LXR beta (aa 155 to 460). To accomplish this, the portions of the sequences encoding the LBDs were amplified from the full-length clones by PCR and then subcloned into the plasmid vectors. Final clones were verified by DNA sequence analysis (Willy et al., Genes Dev. 1995, 9:1033-45; Song et al., Proc Natl Acad Sci USA.1994, 91:10809-13).
(§3) Induction, expression, and purification of LBD proteins were performed in E. coli strain BL21 (pLysS) cells by standard methods (Ref: Current Protocols in Molecular Biology, Wiley Press, edited by Ausubel et al).
(§4) Radioligand Binding Assay
(§5) LXR alpha and LXR beta receptor binding were assayed in buffer consisting of 50 mM HEPES, pH 7.4, 10 mM NaCl, 5 mM MgCl2. For each 96-well reaction, 500 ng of LXRα-LBD or 700 ng of LXR beta-LBD proteins were bound to 80 μg or 40 μg SPA beads respectively, in a final volume of 50 μl by shaking. The resulting slurry was incubated for 1 h at RT and centrifuged for 2 min at 1300×g. The supernatant containing unbound protein was removed, and the semi-dry pellet containing the receptor-coated beads was re-suspended in 50 μl of buffer. […] All binding assays were performed in 96-well plates and the amount of bound ligand was measured on a Packard TopCount using OptiPlates (Packard). Dose response curves were measured within a range of concentration from 10^−10 M to 10^−4 M.

Experiment [2] deals with T2, human LXR beta ligand binding domain (LXR beta-LBD) (Homo sapiens, UniProt P55055).
T2 construct: human LXR beta (aa 155 to 460); unspecified tag ('tagged versions'); made in house; host or cells: E. coli BL21 (pLysS)
T2 sequence (P55055 155-460): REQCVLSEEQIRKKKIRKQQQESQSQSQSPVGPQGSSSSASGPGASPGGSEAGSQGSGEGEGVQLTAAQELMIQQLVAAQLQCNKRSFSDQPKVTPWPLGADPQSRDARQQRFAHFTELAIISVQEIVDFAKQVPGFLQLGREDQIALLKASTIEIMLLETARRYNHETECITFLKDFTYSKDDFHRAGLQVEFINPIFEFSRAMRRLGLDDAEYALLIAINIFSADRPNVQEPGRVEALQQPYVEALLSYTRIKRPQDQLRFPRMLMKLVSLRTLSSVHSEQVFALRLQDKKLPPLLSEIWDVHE
Nature of the experiment: Radioligand binding assay (SPA), LXR beta. Particulars: LXR beta-LBD on SPA beads, read-out: LXRbeta Binding IC50. Here is the method: as §1, §2, §3, §4, §5

As for `O=C(C1CN(S(=O)(=O)c2ccccc2)C(=O)N1C1CCCCC1)N1CCN(c2ncccc2C(F)(F)F)CC1` (racemic) [Example 39, (RS)-1-Benzenesulfonyl-3-cyclohexyl-4-[4-(3-trifluoromethyl-pyridin-2-yl)-piperazine-1-carbonyl]-imidazolidin-2-one], the IC50 – broadly, the concentration that inhibits the measured activity by half – came to 5.5 µM in experiment [1] and 0.48 µM in experiment [2].
As for `O=C(C1CN(S(=O)(=O)c2ccccc2)C(=O)N1c1ccccc1Cl)N1CCN(c2ncccc2Cl)CC1` (racemic) [Example 63, (RS)-1-Benzenesulfonyl-3-(2-chloro-phenyl)-4-[4-(3-chloro-pyridin-2-yl)-piperazine-1-carbonyl]-imidazolidin-2-one], the IC50 in experiment [1] is 2.5 µM; in experiment [2] it was 0.24 µM.
The matching figures for `Cc1ccc(C)c(N2CCN(C(=O)[C@@H]3CN(S(=O)(=O)c4ccccc4)C(=O)N3c3ccccc3Cl)CC2)c1` [Example 50, (S)-1-Benzenesulfonyl-3-(2-chloro-phenyl)-4-[4-(2,5-dimethyl-phenyl)-piperazine-1-carbonyl]-imidazolidin-2-one]: 0.26 µM and 0.1 µM.
